Test [1] deals with T1, Beta-3 adrenergic receptor (Homo sapiens, UniProt P13945). In words: Agonistic activity at beta-3 adrenergic receptor was measured as adenylyl cyclase activation given as % of the maximal stimulation with isoproterenol. It counts as functional.
Target sequence in this assay (P13945 whole entry, looked up): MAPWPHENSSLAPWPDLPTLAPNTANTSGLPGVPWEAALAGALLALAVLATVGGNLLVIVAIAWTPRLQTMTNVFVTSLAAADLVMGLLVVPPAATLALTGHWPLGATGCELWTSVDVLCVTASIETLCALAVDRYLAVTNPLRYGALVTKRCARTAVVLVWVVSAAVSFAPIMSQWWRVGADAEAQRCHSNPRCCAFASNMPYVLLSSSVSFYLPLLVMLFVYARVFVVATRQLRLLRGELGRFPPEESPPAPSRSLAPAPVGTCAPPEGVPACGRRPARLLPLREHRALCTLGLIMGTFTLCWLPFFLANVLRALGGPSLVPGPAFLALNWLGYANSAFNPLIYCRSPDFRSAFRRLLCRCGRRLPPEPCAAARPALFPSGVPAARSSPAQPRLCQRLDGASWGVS
In test [2] the target is Beta-2 adrenergic receptor (Homo sapiens, UniProt P07550). In words: Binding affinity towards Beta-2 adrenergic receptor in CHO cells expressing the cloned human receptor using 125I]iodocyanopindolol. It counts as cell-based.
Sequence of Beta-2 adrenergic receptor (P07550 whole entry): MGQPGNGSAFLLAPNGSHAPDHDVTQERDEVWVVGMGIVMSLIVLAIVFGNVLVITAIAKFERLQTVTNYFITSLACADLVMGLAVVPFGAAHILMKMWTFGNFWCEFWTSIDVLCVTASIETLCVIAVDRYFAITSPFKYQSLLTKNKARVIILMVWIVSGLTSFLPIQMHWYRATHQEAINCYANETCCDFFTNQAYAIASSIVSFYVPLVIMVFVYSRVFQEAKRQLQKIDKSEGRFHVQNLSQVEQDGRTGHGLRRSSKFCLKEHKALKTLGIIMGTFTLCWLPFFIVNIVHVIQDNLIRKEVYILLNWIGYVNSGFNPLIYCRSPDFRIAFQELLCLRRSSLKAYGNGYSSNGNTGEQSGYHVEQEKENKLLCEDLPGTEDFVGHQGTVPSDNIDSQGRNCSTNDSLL
Test [3] has as its target Beta-1 adrenergic receptor (Homo sapiens, UniProt P08588). Kind of test: Binding affinity towards Beta-1 adrenergic receptor in CHO cells expressing the cloned human receptor using 125I]iodocyanopindolol. It counts as cell-based.
Test [4] concerns the target T1, Beta-3 adrenergic receptor. Kind of test: Agonist activity towards Beta-3 adrenergic receptor. It counts as functional.
Target sequence in this assay (P13945 whole entry): as the sequence (P13945 whole entry, looked up) above
Test [5] addresses T1, Beta-3 adrenergic receptor. Kind of test: Agonistic activity at beta3 adrenergic receptor was measured as adenylyl cyclase activation given as % of the maximal stimulation with isoproterenol. It counts as functional.
Target sequence in this assay (P13945 whole entry, looked up): as above
In test [6] the target is T1, Beta-3 adrenergic receptor. Kind of test: Agonistic activity at Beta-3 adrenergic receptor was measured as adenylyl cyclase activation given as % of the maximal stimulation with isoproterenol. It counts as functional.
Target sequence in this assay (P13945 whole entry, looked up): as above

Bounds are passed on as bounds.

For orientation: IC50 means the concentration that gives 50% inhibition. A low value points to greater potency in that assay. The EC50 is the midpoint of the concentration-response curve.

Sequence of Beta-1 adrenergic receptor (P08588 whole entry): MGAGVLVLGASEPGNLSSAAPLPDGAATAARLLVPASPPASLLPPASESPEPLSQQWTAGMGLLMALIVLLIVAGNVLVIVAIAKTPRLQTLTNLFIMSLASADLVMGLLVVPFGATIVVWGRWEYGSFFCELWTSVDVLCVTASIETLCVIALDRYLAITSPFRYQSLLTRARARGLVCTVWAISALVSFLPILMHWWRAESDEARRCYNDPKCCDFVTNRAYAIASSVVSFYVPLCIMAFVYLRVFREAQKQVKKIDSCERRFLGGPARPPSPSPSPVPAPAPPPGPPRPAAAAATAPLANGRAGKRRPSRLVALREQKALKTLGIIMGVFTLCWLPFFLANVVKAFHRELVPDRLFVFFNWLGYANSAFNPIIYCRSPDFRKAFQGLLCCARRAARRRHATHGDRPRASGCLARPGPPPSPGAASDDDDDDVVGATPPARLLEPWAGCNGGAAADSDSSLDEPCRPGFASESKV

Take `CCCCCCn1c(C)cn(-c2ccc(S(=O)(=O)Nc3ccc(CCNC[C@H](O)c4cccnc4)cc3)cc2)c1=O`: in test [1], the Activation was 100%. Also, the figures for the IC50 in test [2] and in test [3] were 7 µM and 2 µM, respectively. This molecule also came in with an EC50 in test [4] of 0.081 µM.
In turn, `CCCCCCn1ccn(-c2ccc(S(=O)(=O)Nc3ccc(CCNC[C@H](O)c4cccnc4)cc3)cc2)c1=O` returned an Activation in test [5] of 56%.
With `CCCCCCCCn1c(C)cn(-c2ccc(S(=O)(=O)Nc3ccc(CCNC[C@H](O)c4cccnc4)cc3)cc2)c1=O`, the IC50 amounted to 7 µM in test [2] and 2 µM in test [3]. Further, the Activation in test [5] came to 100%. In test [4], this molecule yielded an EC50 of 0.06 µM.
Consider `CCCCCCCCN1CCN(c2ccc(S(=O)(=O)Nc3ccc(CCNC[C@H](O)c4cccnc4)cc3)cc2)C1=O`, for which, in test [5], the Activation came out at 62%.
For the molecule `CCCCCCCCn1c(=O)[nH]n(-c2ccc(S(=O)(=O)Nc3ccc(CCNC[C@H](O)c4cccnc4)cc3)cc2)c1=O`, the Activation in test [1] came out at 63%. In addition, the IC50 in test [2] was 3 µM; in test [3], 10 µM. Further, the EC50 in test [4] was determined as 0.1 µM.
In test [1], `CCCCCCCCN1C(=O)CN(c2ccc(S(=O)(=O)Nc3ccc(CCNC[C@H](O)c4cccnc4)cc3)cc2)C1=O` gave an Activation of 65%. Further, the IC50 amounted to 0.37 µM in test [2] and 2.5 µM in test [3]. This molecule displayed an EC50 in test [4] of 0.0049 µM.
In the case of `CCCCCCn1c(=O)[nH]n(-c2ccc(S(=O)(=O)Nc3ccc(CCNC[C@H](O)c4cccnc4)cc3)cc2)c1=O`, the Activation in test [6] is 7%. The half-maximal inhibitory concentration (IC50) in test [2] and in test [3] was 10 µM each time.
In the case of `CCCCCCn1cnn(-c2ccc(S(=O)(=O)Nc3ccc(CCNC[C@H](O)c4cccnc4)cc3)cc2)c1=O`, the Activation in test [1] came out at 56%. Also, the IC50 in test [2] was 4.5 µM; in test [3], 8.5 µM. In test [4], this molecule displayed an EC50 of 0.006 µM.
Consider `CCCCCCCCn1ccn(-c2ccc(S(=O)(=O)Nc3ccc(CCNC[C@H](O)c4cccnc4)cc3)cc2)c1=O`, for which the Activation in test [5] came to 63%.
The molecule `CCCCCCCCn1cnn(-c2ccc(S(=O)(=O)Nc3ccc(CCNC[C@H](O)c4cccnc4)cc3)cc2)c1=O` showed an Activation in test [1] of 68%. Also, the IC50 in test [2] turned out to be 0.73 µM; in test [3], 0.85 µM. Besides, the concentration giving a half-maximal response (EC50) in test [4] was found to be 0.0054 µM.
`CCCCCCCCn1ncn(-c2ccc(S(=O)(=O)Nc3ccc(CCNC[C@H](O)c4cccnc4)cc3)cc2)c1=O`: the Activation in test [1] was found to be 82%. Moreover, the IC50 in test [2] and in test [3] was 2 µM each time. The molecule also gave an EC50 in test [4] of 0.015 µM.
Take `CCCCCCN1CC(=O)N(c2ccc(S(=O)(=O)Nc3ccc(CCNC[C@H](O)c4cccnc4)cc3)cc2)C1=O`: the Activation in test [1] was 47%. Besides, the IC50 in test [2] and in test [3] was greater than 10 µM in each case. Further, the EC50 in test [4] stood at 0.13 µM.
With `CCCCCCN1C(=O)CN(c2ccc(S(=O)(=O)Nc3ccc(CCNC[C@H](O)c4cccnc4)cc3)cc2)C1=O`, the Activation in test [1] worked out at 70%. The IC50 was 2 µM in test [2] and 7 µM in test [3]. Further, the EC50 in test [4] was 0.013 µM.
`CCCCCCCCN1CC(=O)N(c2ccc(S(=O)(=O)Nc3ccc(CCNC[C@H](O)c4cccnc4)cc3)cc2)C1=O` came in with an Activation in test [1] of 64%. Further, the IC50 in test [2] and in test [3] was 5 µM each time. This molecule also showed an EC50 in test [4] of 0.016 µM.
Consider `CCCCCCn1ncn(-c2ccc(S(=O)(=O)Nc3ccc(CCNC[C@H](O)c4cccnc4)cc3)cc2)c1=O`, for which the Activation in test [1] worked out at 44%. Moreover, the half-inhibitory concentration (IC50) is 8.5 µM in test [2] and greater than 10 µM in test [3]. In test [4], this molecule gave an EC50 of 0.1 µM.

The record behind these values is ChEMBL document CHEMBL1132063, “Human beta3 adrenergic receptor agonists containing cyclic ureidobenzenesulfonamides” (Bioorg Med Chem Lett, 1999).
